According to the supplement of paper PMC10307832:

Columns and labels:
Test in all cases: relative viability (nuclei count vs DMSO), 5 days (fraction); higher = more cells survive
[1] = compound: Cc1ccc(-n2nc(C(C)(C)C)cc2NC(=O)Nc2ccc(OCCN3CCOCC3)c3ccccc23)cc1 [Doramapimod] + O=C(CCCCCCC(=O)Nc1ccccc1)NO [Vorinostat] (partner 1 µM)
Procedure, shortened: (§1)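 Lung cancer cell lines, seeded in 1536-well plates, were treated the following day by pin tool with a single drug or with five library-drug doses (not always all listed) in √10 steps on top of a fixed anchor-drug dose. Cells were fixed and nuclei stained in one step after 5 days, and nuclei were counted. Relative viability is the nuclei count for treated wells divided by that for vehicle wells, reported as medians of duplicate plates.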

[2] = compound: C1=CC=C2C(=C1)C=CC(=C2SSC3=C(C=CC4=CC=CC=C43)O)O [IPA-3] + CS(=O)(=O)CCNCc1ccc(-c2ccc3ncnc(Nc4ccc(OCc5cccc(F)c5)c(Cl)c4)c3c2)o1 [Lapatinib] (partner 2 µM)
Procedure, shortened: as §1

[3] = compound: Cn1c(Nc2ccc(C(F)(F)F)cc2)nc2cc(Oc3ccnc(-c4ncc(C(F)(F)F)[nH]4)c3)ccc21 [RAF265] + Cc1nc(Nc2ncc(C(=O)Nc3c(C)cccc3Cl)s2)cc(N2CCN(CCO)CC2)n1 [Dasatinib] (partner 0.075 µM)
Procedure, shortened: as §1

[4] = compound: C1=CC=C2C(=C1)C=CC(=C2SSC3=C(C=CC4=CC=CC=C43)O)O [IPA-3] + CC1(C)CCC(c2ccc(Cl)cc2)=C(CN2CCN(c3ccc(C(=O)NS(=O)(=O)c4ccc(N[C@H](CCN5CCOCC5)CSc5ccccc5)c(S(=O)(=O)C(F)(F)F)c4)cc3)CC2)C1 [Navitoclax] (partner 0.5 µM)
Procedure, shortened: as §1

| Cell Line | relative viability ([1]; first compound 0.02 µM) | relative viability ([1]; first compound 0.06325 µM) | relative viability ([1]; first compound 0.2 µM) | relative viability ([1]; first compound 0.6325 µM) | relative viability ([1]; first compound 2 µM) | relative viability ([2]; first compound 0.2 µM) | relative viability ([2]; first compound 2 µM) | relative viability ([2]; first compound 6.325 µM) | relative viability ([2]; first compound 20 µM) | relative viability ([3]; first compound 0.01 µM) | relative viability ([3]; first compound 0.03162 µM) | relative viability ([3]; first compound 0.1 µM) | relative viability ([3]; first compound 0.3162 µM) | relative viability ([3]; first compound 1 µM) | relative viability ([4]; first compound 0.2 µM) | relative viability ([4]; first compound 2 µM) | relative viability ([4]; first compound 6.325 µM) | relative viability ([4]; first compound 20 µM) | relative viability ([2]; first compound 0.6325 µM) | relative viability ([4]; first compound 0.6325 µM) |
| --- | --- | --- | --- | --- | --- | --- | --- | --- | --- | --- | --- | --- | --- | --- | --- | --- | --- | --- | --- | --- |
| NCI-H1651 | 0.514 | 0.604 | 0.602 | 0.623 | 0.552 | 1.18 | 0.863 | 0.852 | 0.931 | 0.417 | 0.408 | 0.368 | 0.398 | 0.263 | 1.06 | 0.998 | 1.1 | 1.19 | – | – |
| NCI-H1666 | 1.05 | 0.986 | 1.03 | 1.14 | 0.944 | 0.77 | 0.674 | 0.786 | 0.66 | 0.868 | 0.814 | 0.768 | 0.87 | 0.781 | 1.07 | 1.08 | 0.962 | 0.863 | 0.673 | 0.981 |
| NCI-H1734 | 0.705 | 0.739 | 0.665 | 0.94 | 0.621 | 1.19 | 1.12 | 0.982 | 0.892 | 0.482 | 0.373 | 0.369 | 0.358 | 0.266 | 1.1 | 0.781 | 0.844 | 1.02 | 0.969 | 0.834 |
| NCI-H1755 | 0.798 | 0.748 | 0.619 | 0.768 | 0.687 | 1.11 | 1.05 | 1.06 | 1.17 | 0.404 | 0.427 | 0.33 | 0.294 | 0.195 | 1.07 | 1 | 1.03 | 1.02 | 0.988 | 1.01 |
| NCI-H1793 | 0.718 | 0.708 | 0.673 | 0.749 | 0.519 | 0.834 | 0.909 | 0.776 | 0.702 | 0.486 | 0.401 | 0.361 | – | 0.227 | 0.518 | 0.395 | 0.44 | 0.594 | 0.539 | 0.37 |
| NCI-H1915 | 0.52 | 0.571 | 0.551 | 0.563 | 0.442 | 1.06 | 0.934 | 0.941 | 1.02 | 0.342 | 0.332 | 0.213 | 0.151 | 0.137 | 0.794 | 0.782 | 0.782 | 0.738 | 0.968 | 0.817 |
| NCI-H1944 | 0.504 | 0.616 | 0.575 | 0.665 | 0.611 | 0.803 | 0.814 | 1.04 | 0.791 | 0.284 | 0.277 | 0.225 | 0.178 | 0.19 | 1.07 | 1.1 | 1.07 | 1.02 | 0.763 | 0.899 |
| NCI-H1975 | 0.733 | 0.724 | 0.699 | 0.758 | 0.636 | 1.18 | 0.964 | 0.889 | 0.927 | 0.335 | 0.226 | 0.237 | 0.177 | 0.124 | 1.22 | 1.06 | 1.17 | 1.17 | 0.888 | 0.932 |
